Source: PubChem BioAssay AID1919003 (Molecular Pharmacology Branch, DTP, NCI, 2023)
“And” between values parts separate entries of the source, which are not always exact repeats. Equal entries are not always repeated.

Test system: 786-0 complex spheroids with HUVEC/MSC, growth % test/control
Test: Anticancer human tumor 786-0 cell line growth inhibition [AhR];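 also: compound exposure lasted seven days before the read-out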
Conditions: for viability, T/C: stronger effect = lower value
Summary of the method: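 Agents were dosed in half-log steps down from roughly clinical Cmax, or from 10 microM where Cmax was unknown, alone and with AhR antagonists. Read-out: percent test/control growth of tumor spheroids containing HUVEC and MSC stromal cells.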

[1] = curve of first compound, second compound 0.1 µM
[2] = curve of first compound, second compound 0.316 µM
[3] = curve of first compound, second compound 1 µM
[4] = curve of first compound, second compound 3.16 µM
[5] = curve of first compound, second compound 10 µM
[6] = second compound 0.1 µM, first compound 0.0316 µM
[7] = second compound 0.1 µM, first compound 0.1 µM
[8] = second compound 0.1 µM, first compound 0.316 µM
[9] = second compound 0.1 µM, first compound 1 µM
[10] = second compound 0.1 µM, first compound 3.16 µM
[11] = second compound 0.1 µM, first compound 10 µM
[12] = second compound 0.316 µM, first compound 0.0316 µM
[13] = second compound 0.316 µM, first compound 0.1 µM
[14] = second compound 0.316 µM, first compound 0.316 µM
[15] = second compound 0.316 µM, first compound 1 µM
[16] = second compound 0.316 µM, first compound 3.16 µM
[17] = second compound 0.316 µM, first compound 10 µM
[18] = second compound 1 µM, first compound 0.0316 µM
[19] = second compound 1 µM, first compound 0.1 µM
[20] = second compound 1 µM, first compound 0.316 µM
[21] = second compound 1 µM, first compound 1 µM
[22] = second compound 1 µM, first compound 3.16 µM
[23] = second compound 1 µM, first compound 10 µM
[24] = second compound 3.16 µM, first compound 0.0316 µM
[25] = second compound 3.16 µM, first compound 0.1 µM
[26] = second compound 3.16 µM, first compound 0.316 µM
[27] = second compound 3.16 µM, first compound 1 µM
[28] = second compound 3.16 µM, first compound 3.16 µM
[29] = second compound 3.16 µM, first compound 10 µM
[30] = second compound 10 µM, first compound 0.0316 µM
[31] = second compound 10 µM, first compound 0.1 µM
[32] = second compound 10 µM, first compound 0.316 µM
[33] = second compound 10 µM, first compound 1 µM
[34] = second compound 10 µM, first compound 3.16 µM
[35] = second compound 10 µM, first compound 10 µM

Row | SMILES | IC50 [1] | IC50 [2] | IC50 [3] | IC50 [4] | IC50 [5] | viability, T/C [6] | viability, T/C [7] | viability, T/C [8] | viability, T/C [9] | viability, T/C [10] | viability, T/C [11] | viability, T/C [12] | viability, T/C [13] | viability, T/C [14] | viability, T/C [18] | viability, T/C [19] | viability, T/C [24] | viability, T/C [25] | viability, T/C [30] | viability, T/C [31] | further results
1 | O=C(C=Cc1cccc(S(=O)(=O)Nc2ccccc2)c1)NO + CC(CO)NC(=O)c1cc(-c2ccc(Cl)cc2)nn(-c2cnn(C)c2)c1=O | 6.02 µM | 5.21 µM | 5.51 µM | 4.85 µM | 4.71 µM | 102% | 106% | 97.2% | 107% | 93.8% | 15.2% | 104% | 101% | 111% | 100% | 104% | 103% | 102% | 109% | 108% | viability, T/C [15]: 110%; viability, T/C [16]: 79%; viability, T/C [17]: 12%; viability, T/C [20]: 104%; viability, T/C [21]: 105%; viability, T/C [22]: 84.7%; viability, T/C [23]: 12.5%; viability, T/C [26]: 103%; viability, T/C [27]: 101%; viability, T/C [28]: 73.6%; viability, T/C [29]: 10%; viability, T/C [32]: 106%; viability, T/C [33]: 94.8%; viability, T/C [34]: 72.6%; viability, T/C [35]: 8.46%
2 | Nc1ccccc1NC(=O)c1ccc(CNC(=O)OCc2cccnc2)cc1 + Cc1ccccc1N=Nc1ccc(NC(=O)c2ccnn2C)c(C)c1 | 7.06 µM | 7.47 µM | 7.2 µM | 6.61 µM | 5.76 µM | 104% | 99.1% | 120% | 103% | 94.2% | 30.8% | 114% | 103% | 106% | 105% | 111% | 88.1% | 90.6% | 88.5% | 91.7% | viability, T/C [15]: 115%; viability, T/C [16]: 105%; viability, T/C [17]: 31.1%; viability, T/C [20]: 105%; viability, T/C [21]: 104%; viability, T/C [22]: 94.3%; viability, T/C [23]: 32%; viability, T/C [26]: 92.2%; viability, T/C [27]: 80.8%; viability, T/C [28]: 91.4%; viability, T/C [29]: 28.2%; viability, T/C [32]: 99.2%; viability, T/C [33]: 91.2%; viability, T/C [34]: 75.8%; viability, T/C [35]: 26.3%
3 | CC1(C)CCC(CN2CCN(c3ccc(C(=O)NS(=O)(=O)c4ccc(NCC5CCOCC5)c([N+](=O)[O-])c4)c(Oc4cnc5[nH]ccc5c4)c3)CC2)=C(c2ccc(Cl)cc2)C1 | – | – | – | – | – | – | – | – | – | – | – | – | – | – | – | – | – | – | – | – | viability, T/C (compound 0.0316 µM): 99.3% and 109% and 105%; viability, T/C (compound 0.1 µM): 97.5% and 98.3% and 98%; viability, T/C (compound 0.316 µM): 102% and 108% and 99.2%; viability, T/C (compound 1 µM): 107% and 108% and 102%; viability, T/C (compound 3.16 µM): 101% and 97.3% and 81.5%; viability, T/C (compound 10 µM): 61.2% and 77.3% and 77.1%; IC50 (curve of compound): > 10 µM
4 | COc1cc(Nc2ncc3c(n2)-c2ccc(Cl)cc2C(c2c(F)cccc2OC)=NC3)ccc1C(=O)O + Cc1cncc(-c2nc(NCCc3c[nH]c4ccccc34)c3ncn(C(C)C)c3n2)c1 | 6.87 µM | 6.37 µM | 6.55 µM | 7.76 µM | < 0.0316 µM | 115% | 115% | 155% | 104% | 75.5% | 38.2% | 121% | 121% | 144% | 115% | 125% | 63.3% | 68.3% | 4.3% | 1.69% | viability, T/C [15]: 123%; viability, T/C [16]: 69%; viability, T/C [17]: 37.8%; viability, T/C [20]: 152%; viability, T/C [21]: 114%; viability, T/C [22]: 71.2%; viability, T/C [23]: 37.9%; viability, T/C [26]: 94.2%; viability, T/C [27]: 92.3%; viability, T/C [28]: 70.1%; viability, T/C [29]: 44.4%; viability, T/C [32]: 2.04%; viability, T/C [33]: 3.84%; viability, T/C [34]: 4.27%; viability, T/C [35]: 16.9%
5 | Cn1ncnc1C1c2n[nH]c(=O)c3cc(F)cc(c23)NC1c1ccc(F)cc1 (configuration not stated) + CC(CO)NC(=O)c1cc(-c2ccc(Cl)cc2)nn(-c2cnn(C)c2)c1=O | > 0.1 µM | > 0.1 µM | > 0.1 µM | > 0.1 µM | > 0.1 µM | 113% | 98.8% | – | – | – | – | 109% | 98.7% | – | 107% | 99.3% | 100% | 102% | 110% | 110% | viability, T/C (second compound 0.1 µM, first compound 0.000316 µM): 105%; viability, T/C (second compound 0.1 µM, first compound 0.001 µM): 97.4%; viability, T/C (second compound 0.1 µM, first compound 0.00316 µM): 95%; viability, T/C (second compound 0.1 µM, first compound 0.01 µM): 99.6%; viability, T/C (second compound 0.316 µM, first compound 0.000316 µM): 101%; viability, T/C (second compound 0.316 µM, first compound 0.001 µM): 105%; viability, T/C (second compound 0.316 µM, first compound 0.00316 µM): 97.8%; viability, T/C (second compound 0.316 µM, first compound 0.01 µM): 98.2%; viability, T/C (second compound 1 µM, first compound 0.000316 µM): 99.3%; viability, T/C (second compound 1 µM, first compound 0.001 µM): 107%; viability, T/C (second compound 1 µM, first compound 0.00316 µM): 105%; viability, T/C (second compound 1 µM, first compound 0.01 µM): 110%; viability, T/C (second compound 3.16 µM, first compound 0.000316 µM): 107%; viability, T/C (second compound 3.16 µM, first compound 0.001 µM): 102%; viability, T/C (second compound 3.16 µM, first compound 0.00316 µM): 99.1%; viability, T/C (second compound 3.16 µM, first compound 0.01 µM): 111%; viability, T/C (second compound 10 µM, first compound 0.000316 µM): 114%; viability, T/C (second compound 10 µM, first compound 0.001 µM): 118%; viability, T/C (second compound 10 µM, first compound 0.00316 µM): 110%; viability, T/C (second compound 10 µM, first compound 0.01 µM): 111%
